# Experimental data reported in patent US20070275904A1, “CONJUGATES OF AZIRIDINYL-EPOTHILONE ANALOGS AND PHARMACEUTICAL COMPOSITIONS COMPRISING SAME” (BRISTOL-MYERS SQUIBB COMPANY, priority 2006, published 2007).
# Like-named read-outs stand apart in the source and are kept apart here.
# Key:
# [1] = test system: clonogenic KB cancer cells; assay: Clonogenic cell survival (colony formation) assay, KB cells; type: cell-based, human; conditions: FIG. 3; for fold by which compound G is more potent than the named compound (IC90): KB cells, 17 hours exposure
# Description: Cancer cells were seeded at 3.0E+05 cells in a T75 flask with 10 ml of RPMI1640 media, free of folic acid, and containing 10% fetal bovine serum and 25 mM HEPES. Cells were grown in a 37° C. incubator containing 5% CO2 for 2 days. On day 2, supernatants were removed from the flasks, and the flasks were divided into 2 groups. One group of cells were incubated with 5 ml of media containing […] of folic acid (Sigma) for 30 minutes and the others were grown in 5 ml of media without added folic acid. Cells were then treated with 20 nM of epothilone, epothilone analog, conjugated epothilone, or conjugated epothilone analog for one hour. At the end of the incubation, the drugs were removed from the flasks and the cells were washed with PBS buffer 3×. After washing, 5 ml of complete media were added into each flask, and the cell was grown in the CO2 incubator for 23 hours. The next morning, the cells were removed from the flasks by trypsinization, cell numbers were determined, and then cells were plated in a 6 well plates. Ten days after plating, colonies were stained with crystal violet and counted. The surviving fractions were determined.
# This is important because it is the aziridine epothilone analog, e.g., Compound G, that mediates the antitumor effects upon release from folic acid. […] The concentration needed to kill 90% of clonogenic KB cancer cells (IC90) was determined after a drug exposure duration of 17 hours.
# [2] = test system: A2780 ovarian carcinoma cell line; assay: cells; type: cell-based, human; conditions: read-out: A2780 IC5
# Description: (§1) In vitro cytotoxicity was assessed in tumor cells using a tetrazolium-based colorimetric assay which takes advantage of the metabolic conversion of MTS (3-(4,5-dimethylthiazol-2-yl)-5-(3-carboxymethoxyphenyl)-2-([…])-2H-tetrazolium, inner salt) to a reduced form that absorbs light at 492 nm. Cells were seeded 24 hr prior to addition of the epothilone, epothilone analog, conjugated epothilone, or conjugated epothilone analog. Following a 72 hour incubation at 37° C. with serially diluted compound, MTS, in combination with the electron coupling agent phenazine methosulfate, was added to the cells. The incubation was continued for 3 hours, then the absorbancy of the medium at 492 nm was measured with a spectrophotometer to obtain the number of surviving cells relative to control populations. The results are expressed as median cytotoxic concentrations (IC50 values).
# (§2) Other epothilone analogs, e.g., aziridinyl epothilones, are known in the art (see, e.g., U.S. Pat. No. 6,399,638; Regueiro-Ren, A, et al. (2001) Org. Letters. 3:2693-96) and show potent antitumor cytotoxicity. For example, an MTS assay that compared the relative cytotoxic potency of a number of epothilone analogs against a pair of taxane-resistant cancer cell lines (HCTVM46 and […]) was conducted (see Table 1). HCTVM46 is a human colon carcinoma cell line derived from the sensitive HCT116 parent line, and is resistant to taxanes due to overexpression of the 170 kD p-glyprotein drug efflux transporter. A2780Tax is a human ovarian carcinoma cell line derived from the parent A2780 line, and is resistant to paclitaxel as a result of a mutation in the tubulin amino acid sequence that impairs the ability of paclitaxel to bind.
# (§3) As is shown in Table 1, various aziridinyl epothilone analogs (Compounds CC-EE) show potent antitumor activity against both the HCT116 colon and A2780 ovarian carcinoma cell lines, compared to other known antitumor agents, e.g., paclitaxel, compound AA, and epothilone B.
# [3] = test system: HCT116 colon carcinoma cell line; assay: cells; type: cell-based, human; conditions: read-out: HCT116 IC50
# Description: as §1, §2, §3
# [4] = test system: A2780Tax human ovarian carcinoma cell line; assay: In vitro MTS assay, paclitaxel-resistant A2780Tax versus A2780; type: cell-based
# Description: as §1, §2
# [5] = test system: HCT116VM46 (HCTVM46) human colon carcinoma cell line; type: cell-based; conditions: R/S ratio = HCT116 IC50/HCT116VM46IC50 as printed
# Description: as §1, §2
# Phase II clinical trials = conditions: in vivo
# [6] = test system: KB nasopharyngeal epidermoid carcinoma xenografts; assay: KB in vivo FRα(+) tumor model, xenografts in nude mice; conditions: FIG. 4
# Description: (§4) Female CD2F1 mice (Harlan Sprague-Dawley Inc., 20-22 g) maintained in a controlled environment and provided with water and food ad libitum were used in these studies. The murine FRα(−) Madison 109 (M109) lung carcinoma (Marks et al., 1977) and the FR-expressing (FRα(+)) 98M109 variant were used to evaluate the efficacy of the epothilone, epothilone analog (e.g., epothilone derivative), folate-epothilone conjugate, or folate-epothilone analog conjugate. In addition, the human head and neck epidermoid carcinoma KB grown in nude mice was also used for this purpose.
# (§5) For administration of epothilones or epothilone analogs to mice, an excipient consisting of the following was used: CREMOPHOR®/ethanol/water (1:1:8, v/v). The compounds were first dissolved in a mixture of CREMOPHOR®/ethanol (50:50). Final dilution to the required dosage strength was made less than 1 hr before drug administration. Mice were administered the agents by bolus IV injection through the tail vein. Folate-epothilone conjugates or folate-epothilone analog conjugates were prepared in sterile phosphate buffered saline and administered to mice by IV bolus injection through the tail vein at a volume of 0.01 mL/g of mice. Treatment of each animal was based on individual body weight. […]
# (§6) Tumor response was determined by measurement of tumors with a caliper twice a week, until the tumors reached a predetermined “target” size of 1 gm. […]
# (§7) Antitumor activity was evaluated at the maximum tolerated dose (MTD) which is defined as the dose level immediately […] which excessive toxicity (i.e. more than one death) occurred. When death occurred, the day of death was recorded. […]
# (§8) To estimate tumor cell kill, the tumor volume doubling time (TVDT) was first calculated with the formula: TVDT=Median time (days) for control tumors to reach target size−Median time (days) for control tumors to reach half the target size And, Log cell kill=T−C÷(3.32×TVDT) Statistical evaluations of data were performed using Gehan's generalized Wilcoxon test.
# FRα(+) 98M109 tumors = assay: FRα(+) 98M109 tumor model, competition with a folate analog; type: in vivo, mice; conditions: folate analog at 20-fold excess of the dose of compound J; FIG. 6
# Description: as §4, with “purpose. […]” for “purpose.”
# as §6, §7, §8
# [7] = FRα(−) M109 parent tumor model in mice; type: in vivo; conditions: female, CD2F1, mouse, in vivo, M109 model, IV, read-out: maximum tolerated dose (MTD)
# Description: as §4
# (§9) For administration of epothilones or epothilone analogs to mice, an excipient consisting of the following was used: CREMOPHOR®/ethanol/water (1:1:8, v/v). The compounds were first dissolved in a mixture of CREMOPHOR®/ethanol (50:50). Final dilution to the required dosage strength was made less than 1 hr before drug administration. Mice were administered the agents by bolus IV injection through the tail vein. Folate-epothilone conjugates or folate-epothilone analog conjugates were prepared in sterile phosphate buffered saline and administered to mice by IV bolus injection through the tail vein at a volume of 0.01 mL/g of mice. Treatment of each animal was based on individual body weight.
# (§10) The required number of animals needed to detect a meaningful response were pooled at the start of the experiment and each was given a subcutaneous inoculation of a tumor brei (2% w/v). Tumors were allowed to grow for 4 days. On the fourth day, animals were evenly distributed to various treatment and control groups. Treated animals were checked daily for treatment related toxicity/mortality. Each group of animals was weighed before the initiation of treatment (Wt1) and then again following the last treatment dose (Wt2). The difference in body weight (Wt2−Wt1) provides a measure of treatment-related toxicity.
# (§11) Tumor response was determined by measurement of tumors with a caliper twice a week, until the tumors reached a predetermined “target” size of 1 gm. Tumor weights (mg) were estimated from the formula: Tumor weight=(length×width^2)÷2
# as §7, §8
# [8] = test system: FRα(−) M109 murine lung carcinoma; assay: FRα(−) M109 parent tumor model in mice; type: in vivo; conditions: IV bolus, FIG. 5
# Description: as §4, §9, §10, §11, §7, §8
# [9] = biological target: T1, FR expressed on KB tumor cells (Homo sapiens, UniProt P15328); assay: Displacement of radiolabeled folic acid from FR on KB tumor cells; type: binding; conditions: compared to folic acid, RA of folic acid=1.0
# T1 construct: FR expressed on KB tumor cells grown to confluence; endogenous in cells; host or cells: KB tumor cells
# T1 sequence (P15328 25-234): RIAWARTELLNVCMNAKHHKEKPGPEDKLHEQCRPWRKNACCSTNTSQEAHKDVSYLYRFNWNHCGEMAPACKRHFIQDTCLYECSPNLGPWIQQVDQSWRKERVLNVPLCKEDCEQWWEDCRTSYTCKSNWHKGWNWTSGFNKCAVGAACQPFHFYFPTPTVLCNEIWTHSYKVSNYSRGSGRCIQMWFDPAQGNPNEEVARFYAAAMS
# Description: The binding of folate conjugates of Compound AA to FR was determined in an assay that measures displacement of radiolabeled folic acid from FR expressed on KB tumor cells grown to confluence.
# [10] = KB in vivo FRα(+) tumor model, xenografts in nude mice; conditions: mouse, in vivo; KB model, nude mice, IV; read-out: maximum tolerated dose (MTD)
# Description: as §4, §5, §6, §7, §8
# [11] = Homo sapiens, HCT-116, Mean IC50 ± SD from four separate experiments, MTS, 72 hour incubation
# [12] = Mean IC50 ± SD from four separate experiments, MTS, 72 hour incubation
smiles,measurement,setting,value
"C/C(=C\c1csc(C)n1)[C@@H]1CC2[C@@H](CCC[C@H](C)[C@H](O)[C@@H](C)C(=O)C(C)(C)[C@@H](O)CC(=O)O1)[N@@]2CCO (relative stereo) [Compound G, [1S-[1R*,3R*(E),7R*,10S*,11R*,12R*,16S*]]-7,11-Dihydroxy-17-[2-hydroxyethyl]-8,8,10,12-tetramethyl-3-[1-methyl-2-(2-methyl-4-thiazolyl)ethenyl]-4-oxa-17-azabicyclo[14.1.0]heptadecane-5,9-dione]","IC90, concentration needed to kill 90% of clonogenic KB cancer cells",[1]; drug exposure duration of 17 hours,4.3 nM
C/C(=C\c1csc(CN)n1)[C@@H]1CC2O[C@]2(C)CCC[C@H](C)[C@H](O)[C@@H](C)C(=O)C(C)(C)[C@@H](O)CC(=O)O1 (stereo partly drawn) [Compound AA],IC50,"[2]; Homo sapiens, A2780, Mean IC50 ± SD from four separate experiments, MTS, 72 hour incubation",1.1 ± 0.4 nM
same,IC50,[3]; [11],1.2 ± 0.3 nM
same,R/S Ratio (A2780),[4],3
same,R/S Ratio (HCT116),[5],14.8
same,activity in Phase II clinical trials,Phase II clinical trials,has activity
same,fold by which compound G is more potent than the named compound (IC90),[1],~4 fold
C/C(=C\c1csc(C)n1)C1C[C@@H]2N[C@@H]2CCC[C@H](C)[C@H](O)[C@@H](C)C(=O)C(C)(C)[C@@H](O)CC(=O)O1 (stereo partly drawn) [Compound CC],IC50,"[2]; Homo sapiens, A2780, 72 h",3.4 ± 1.5 nM
same,IC50,"[3]; Homo sapiens, HCT-116, 72 h",4.2 ± 2.8 nM
same,R/S Ratio (A2780),[4],4.7
same,R/S Ratio (HCT116),[5],3.1
same,fold by which compound G is more potent than the named compound (IC90),[1],~2 fold
C/C(=C\c1csc(C)n1)[C@@H]1C[C@H]2[C@@H](CCC[C@H](C)[C@H](O)[C@@H](C)C(=O)C(C)(C)[C@@H](O)CC(=O)O1)N2CCOC(=O)OCCSSC[C@H](NC(=O)[C@H](CC(=O)O)NC(=O)[C@H](CCCNC(=N)N)NC(=O)[C@H](CC(=O)O)NC(=O)CC[C@H](NC(=O)c1ccc(NCc2cnc3nc(N)[nH]c(=O)c3n2)cc1)C(=O)O)C(=O)O (stereo partly drawn) [Compound J],toxicity at the two dose levels below MTD,[6]; KB model,minimal toxicity
same,antitumor effects compared at the MTDs,[6]; versus ixabepilone,superior antitumor effects than ixabepilone
same,effect of co-administered folate analog on antitumor effects,FRα(+) 98M109 tumors,protect FRα(+) 98M109 tumors from the antitumor effects of compound J
same,MTD,[7],2.4 µmol/kg
same,antitumor activity in FRα(−) M109 parent tumor model,[8],poor activity at all dose levels tested
same,relative affinity (RA) for folate receptor,[9],0.77
C/C(=C\c1csc(C)n1)C1C[C@H]2[C@@H](CCC[C@H](C)[C@H](O)[C@@H](C)C(=O)C(C)(C)[C@@H](O)CC(=O)O1)N2C (stereo partly drawn) [DD],IC50,"[2]; Homo sapiens, A2780, 72 h",0.25 ± 0.06 nM
same,IC50,"[3]; Homo sapiens, HCT-116, 72 h",0.37 ± 0.13 nM
same,R/S Ratio (A2780),[4],4.1
same,R/S Ratio (HCT116),[5],0.6
C/C(=C\c1csc(C)n1)[C@@H]1C[C@@H]2O[C@]2(C)CCC[C@H](C)[C@H](O)[C@@H](C)C(=O)C(C)(C)[C@@H](O)CC(=O)O1 [Epothilone B],IC50,[2]; [12],0.23 ± 0.09 nM
same,IC50,[3]; [12],0.4 ± 0.13 nM
same,R/S Ratio (A2780),[4],2.5
same,R/S Ratio (HCT116),[5],0.5
Nc1nc2ncc(CNc3ccc(C(=O)N[C@@H](CCC(=O)O)C(=O)O)cc3)nc2c(=O)[nH]1 [folic acid],relative affinity (RA) for folate receptor,[9],1.0
C/C(=C\c1csc(C)n1)[C@@H]1C[C@@H]2O[C@]2(C)CCC[C@H](C)[C@H](O)[C@@H](C)C(=O)C(C)(C)[C@@H](O)CC(=O)N1 [ixabepilone],MTD,[10],5 µmol/kg
same,fold by which compound G is more potent than the named compound (IC90),[1],~6 fold
same,MTD,[7],5 µmol/kg
same,antitumor activity in FRα(−) M109 parent tumor model,[8],active at its MTD
CC(=O)O[C@H]1C(=O)[C@@]2(C)[C@H]([C@H](OC(=O)c3ccccc3)[C@]3(O)C[C@H](OC(=O)[C@H](O)[C@@H](NC(=O)c4ccccc4)c4ccccc4)C(C)=C1C3(C)C)[C@]1(OC(C)=O)CO[C@@H]1C[C@@H]2O [paclitaxel],IC50,[3]; [11],3.3 ± 1 nM
same,R/S Ratio (A2780),[4],22.1
